Reference: US9126060B2, “Cosmetic use of geranylgeranyl-2-propanol” (SEDERMA, priority 2010, dated 2015)

Columns and labels:
[1] = tested on: decorin; experiment: Decorin biosynthesis in fibroblast culture (ELISA); type: cell-based, human; conditions: for Decorin: 3 days, n = 5
Protocol: Principle: Normal human fibroblasts were brought to confluence, then contacted or not with GGP at 3, 5 or 7 ppm for 3 days. After this incubation, decorin content was assayed by ELISA in cell homogenates, and then divided by the number of cells.

[2] = biological target: T1, tyrosinase (Homo sapiens, UniProt P14679); experiment: Residual tyrosinase activity in human melanocytes; type: cell-based; conditions: for tyrosinase activity: 5 days, n = 4
T1 construct: endogenous in cells; host or cells: human melanocytes
T1 sequence (P14679 19-529): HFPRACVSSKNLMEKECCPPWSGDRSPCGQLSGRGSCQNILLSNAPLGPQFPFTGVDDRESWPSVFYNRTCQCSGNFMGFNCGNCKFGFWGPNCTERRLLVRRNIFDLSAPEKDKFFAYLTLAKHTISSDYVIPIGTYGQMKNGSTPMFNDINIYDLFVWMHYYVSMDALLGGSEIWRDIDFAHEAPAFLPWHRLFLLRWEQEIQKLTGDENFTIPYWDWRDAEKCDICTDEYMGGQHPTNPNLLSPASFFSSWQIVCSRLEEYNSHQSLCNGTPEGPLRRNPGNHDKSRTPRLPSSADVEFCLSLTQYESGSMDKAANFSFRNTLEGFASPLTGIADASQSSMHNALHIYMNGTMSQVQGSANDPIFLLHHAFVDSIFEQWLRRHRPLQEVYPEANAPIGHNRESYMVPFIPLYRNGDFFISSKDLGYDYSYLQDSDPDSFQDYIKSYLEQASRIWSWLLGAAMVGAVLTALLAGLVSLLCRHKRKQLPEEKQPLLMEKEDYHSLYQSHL
Protocol: Principle: Human melanocytes are seeded and placed in contact with the GGP for 5 days. After incubation, the residual tyrosinase activity and total melanin content were measured in cell homogenates, and then divided by the number of cells (melanin) or to the protein amount (tyrosinase).

## CC(C)=CCC/C(C)=C/CC/C(C)=C/CC/C(C)=C/CCC(C)O (stereo not drawn) [GGP, 6,10,14,18-tetramethylnonadeca-5,9,13,17-tetraen-2-ol]
[1]; 3 ppm
  Change (%) of decorin vs control: +15%; p < 0.03
  Decorin: 47578 +/− 3587 pg/10^6 cell
[1]; 5 ppm
  Change (%) of decorin vs control: +32%; p < 0.01
  Decorin: 54419 +/− 4697 pg/10^6 cell
[1]; 7 ppm
  Change (%) of decorin vs control: +41%; p < 0.01
  Decorin: 58168 +/− 5912 pg/10^6 cell
[2]; 1 ppm
  Change (%) of tyrosinase activity vs control: −11%; p < 0.05
  tyrosinase activity: 6.196 +/− 0.318 U/μg prot
[2]; 3 ppm
  Change (%) of tyrosinase activity vs control: −29%; p < 0.01
  tyrosinase activity: 4.956 +/− 0.129 U/μg prot
[2]; 5 ppm
  Change (%) of tyrosinase activity vs control: −49%; p < 0.01
  tyrosinase activity: 3.588 +/− 0.248 U/μg prot
